Measurements as given in patent US4162253A, “Acaricidal agents” (Pfizer Inc., priority 1975, dated 1979).

Tested on: Adult Boophilus microplus
Assay: Topical application test on fully engorged adult Boophilus microplus ticks; overall reduction in anticipated reproduction (eggs laid and hatching)
Type: in vivo
Settings: Rhipicephalus microplus, read-out: In Vitro Activity (topical application) vs. Adult Boophilus microplus % Effect; for inhibition at 10 µg/tick: 10 μg/tick; for inhibition at 1 µg/tick: 1 μg/tick; for inhibition at 2 µg/tick: 2 μg/tick; for inhibition at 4 µg/tick: 4 μg/tick; for inhibition at 8 µg/tick: 8 μg/tick; for inhibition at 0.5 µg/tick: 0.5 μg/tick
Procedure: In one test, five freshly collected, fully engorged Boophilus microplus adult ticks are used for each acaricidal compound. Using a micro-pipette, 10 micro-liters of a solution containing 10 micro-grams of the acaricidal compound in ethanol or acetone, is applied to the dorsal surface of each of the ticks. The treated ticks are placed in weighted 1"×2" glass vials, weighted and stored at 26° C. and 80% relative humidity in plastic boxes for two weeks. The ticks are then removed from the vials and the vials weighted to give the weight of eggs laid by the ticks. Any reduction in the egg laying of the treated ticks is caculated as a percentage of the eggs laid by untreated control ticks.
The eggs are returned to the incubator for a further 3 weeks after which time the percentage of eggs hatching is estimated.
The percentage effect is calculated as the overall reduction in the anticipated reproduction of the ticks using the weight of eggs laid and the percentage of eggs hatching.
The test may be repeated using smaller amounts of the acaricidal compound for sufficiently active compounds.
The activity of many of the compounds of the Examples detailed hereinafter against the tick Boophilus microplus has been determined.

Compound | inhibition at 10 µg/tick [%] | inhibition at 1 µg/tick [%] | inhibition at 2 µg/tick [%] | inhibition at 4 µg/tick [%] | inhibition at 8 µg/tick [%] | inhibition at 0.5 µg/tick [%]
CCCCCCCCCCCCCCC[N+]1=C2SC=C(C)N2CCC1 [Example 10] | 72 | – | – | – | – | –
CCCCCCCCCCCCCCCCCC[N+]1=C2SC=C(C)N2CCC1 [Example 8] | 26 | – | – | – | – | –
CCCCCCCCCCCCCCC[N+]1=C2SC=C(c3ccccc3)N2CCC1 [Example 2] | 100 | 16 | 67 | 77 | 100 | –
CCCCCCCCCCCCCCCC[N+]1=C2SC(c3ccccc3)=CN2CCCC1 [Example 34] | 32 | – | – | – | – | –
CCCCCCCCCCCCCCCC[N+]1=C2SC=C(C)N2CCCC1 [Example 20, 9-cetyl-3-methyl-5,6,7,8-tetrahydro-thiazolo[3,2-a][1,3]diazepinium bromide] | 100 | 29 | 67 | 99 | 100 | 0
CCCCCCCCCCCCCCCCCC[N+]1=C2SC(C)=C(c3ccccc3)N2CC1 [Example 45] | 88 | – | – | – | – | –
CCCCCCCCCCCCCCCC[N+]1=C2SC=C(c3ccccc3)N2CCCC1 [Example 21] | 100 | 0 | 83 | 98 | 100 | –
CCCCCCCCCCCCCCCC[N+]1=C2SC=C(c3ccccc3)N2CCC1 [Example 3] | 100 | 13 | 26 | 90 | 97 | 2
CCCCCCCCCCCCCCC[N+]1=C2SC=C(C)N2CCCC1 [Example 24] | 100 | 48 | 70 | 97 | 100 | 13
CCCCCCCCCCCCCCC[N+]1=C2SC=C(c3ccccc3)N2CCCC1 [Example 26, 9-Pentadecyl-3-phenyl-5,6,7,8-tetrahydrothiazolo[3,2-a][1,3]diazepinium bromide] | 99 | 12 | 43 | 61 | 92 | 14
CCCCCCCCCCCCCCC[N+]1=C2SC(C)=C(c3ccccc3)N2CCC1 [Example 11] | 100 | 36 | 73 | 100 | 100 | 30
CCCCCCCCCCCCCC[N+]1=C2SC=C(c3ccccc3)N2CCCC1 [Example 29] | 100 | 19 | 11 | 55 | 100 | –
CCCCCCCCCCCCCCCCC[N+]1=C2SC(C)=C(c3ccccc3)N2CC1 [Example 44] | 100 | 63 | 89 | 93 | 100 | 0
CCCCCCCCCCCCCC[N+]1=C2SC(C)=C(c3ccccc3)N2CCC1 [Example 13] | 100 | 6 | 21 | 99.4 | 99.9 | 0
CCCCCCCCCCCCCCCC[N+]1=C2SC(C)=C(c3ccccc3)N2CC1 [Example 42, 7-cetyl-2-methyl-3-phenyl--5,6-dihydro-imidazo[2,1-b]thiazolium bromide] | 100 | 52 | 50 | 90 | 100 | 6
CCCCCCCCCCCCCCC[N+]1=C2SC(C)=C(c3ccccc3)N2CC1 [Example 43] | 100 | 23 | 72 | 96 | 100 | 4
CCCCCCCCCCCCC[N+]1=C2SC=C(c3ccccc3)N2CCCC1 [Example 31] | 100 | – | – | 0 | 52 | –
CCCCCCCCCCCCCCCC[N+]1=C2SC(C)=C(c3ccccc3)N2CCC1 [Example 7, 8-cetyl, 2-methyl-3-phenyl-6,7-dihydro[5H]thiazolo[3,2-a]pyrimidinium bromide] | 100 | 54 | 92 | 99 | 100 | 31
CCCCCCCCCCCCCCCC[N+]1=C2SC=CN2CCCC1 [Example 36] | 26 | – | – | – | – | –

Compound | inhibition at 10 µg/tick [%] | inhibition at 1 µg/tick [%] | inhibition at 2 µg/tick [%] | inhibition at 4 µg/tick [%] | inhibition at 8 µg/tick [%] | inhibition at 0.5 µg/tick [%]
CCCCCCCCCCCCCCCC[N+]1=C2SC(C)=C(c3ccccc3)N2CCCC1 [Example 23, 9-hexadecyl-2-methyl-3-phenyl-5,6,7,8-tetrahydro-thiazolo[3,2-a][1,3]diazepinium bromide] | 100 | 60 | 98 | 100 | 100 | 6
CCCCCCCCCCCCCCCCC[N+]1=C2SC=C(c3ccccc3)N2CCC1 [Example 6] | 100 | 7 | 43 | 79 | 98 | –
CCCCCCCCCCCCCCCC[N+]1=C2SC3=C(CCCC3)N2CCCC1 [Example 35, 9-hexadecyl-2,3-tetramethylene-5,6,7,8-tetrahydrothiazolo[3,2-a][1,3] diazepinium bromide] | 100 | 8 | 13 | 70 | 100 | 0
CCCCCCCCCCCCCC[N+]1=C2SC=C(C)N2CCCC1 [Example 28] | 100 | 13 | 52 | 74 | 83 | –
CCCCCCCCCCCC[N+]1=C2SC=C(C)N2CCCC1 [Example 38] | 30 | – | – | – | – | –
CCCCCCCCCC[N+]1=C2SC(C)=C(c3ccccc3)N2CC1 [Example 46] | 95 | – | – | – | – | –
CCCCCCCCCCCCCCCCC[N+]1=C2SC=C(C)N2CCCC1 [Example 30] | 100 | 13 | 47 | 56 | 95 | –
CCCCCCCCCCCCCCCCC[N+]1=C2SC=C(C)N2CCC1 [Example 9] | 42 | – | – | – | – | –
CCCCCCCCCCCCCCCC[N+]1=C2SC(C)=C(CC)N2CCC1 [Example 1, 8-cetyl-3-ethyl-2-methyl-6,7-dihydro[5H]thiazolo[3,2-a]pyrimidinium bromide] | 100 | 59 | 99 | 100 | 100 | 24
CCCCCCCCCCCCCC[N+]1=C2SC=C(C)N2CCC1 [Example 5] | 65 | 0 | 4 | 32 | 63 | –
CCCCCCCCCCCCCCCCC[N+]1=C2SC=C(c3ccccc3)N2CCCC1 [Example 32] | 100 | 12 | 66 | 94 | 95 | 0
CCCCCCCCCCCCCCCCCC[N+]1=C2SC(C)=C(c3ccccc3)N2CCC1 [Example 12] | 100 | 19 | 22 | 38 | 87 | 16
CCCCCCCCCCCCCCCCCC[N+]1=C2SC=C(C)N2CCCC1 [Example 25] | 98 | 20 | 40 | 82 | 78 | –
CCCCCCCCCCCCCCCC[N+]1=C2SC=C(C)N2CCC1 [Example 19] | 49 | – | 0 | 9 | 28 | –
CCCCCCCCCCCCCCCC[N+]1=C2SC(c3ccccc3)=CN2CCC1 [Example 16] | 33 | – | – | – | – | –
CCCCCCCCCCCCC[N+]1=C2SC=C(C)N2CCCC1 [Example 27] | 86 | 38 | 55 | 63 | 75 | 40
CCCCCCCCCCCC[N+]1=C2SC=C(c3ccccc3)N2CCCC1 [Example 37] | 87 | – | – | – | – | –
CCCCCCCCCCCCCCCCCC[N+]1=C2SC=C(c3ccccc3)N2CCC1 [Example 14] | 47 | – | – | – | – | –
CCCCCCCCCCCCCC[N+]1=C2SC(C)=C(CC)N2CCC1 [Example 4] | 83 | – | 12 | 75 | 100 | –
